From patent publication US10954193B2 (Vanderbilt University, priority 2013, dated 2021) come the findings set out here.

Experiment [1] has as its target Bcl-xL (residues 1-209, loop 45-86 deleted) (Homo sapiens (Human), UniProt Q07817, DEL45-86). In words: Bak peptide binding assay, fluorescence polarization anisotropy competition (FITC-Bak), Bcl-xL selectivity. To be noted: Table 4; FITC-Bak peptide 10 nM, Bcl-xL 4 nM. As for the experimental part:
(§1) Bak Peptide Binding Assay
(§2) Compound affinity was measured using a fluorescence polarization anisotropy competition assay. Anisotropy measurements were carried out in 384-well, black, flat-bottom plates (Greiner Bio-one, Monroe, N.C., USA). The assay was run using a fluorescein isothiocyanate-labeled BH3 peptide derived from Bak (FITC-AHx-[…]-NH2) that was purchased from GenScript (Piscataway, N.J.) at >95% purity and used without further purification. 10 nM FITC-Bak peptide and 14 nM recombinant Mcl-1 (residues 172-327) were added to assay buffer (3 mM dithiothreitol, 50 mM NaCl, 20 mM Tris, pH 7.5). For selectivity assays, 40 nM Bcl-2 (residues 1-207^A96T,G110R, Δ35-91, replaced with Bcl-xL35-50) or 4 nM Bcl-xL (residues 1-209, loop 45-86 deleted) were incubated with 10 nM FITC-Bak in assay buffer.
(§3) Compounds are diluted in DMSO in a 10-point, 3-fold serial dilution scheme. 2.5 uL compound is added to 47.5 uL of assay buffer containing FITC-Bak and protein, for a final DMSO concentration of 5% and a top concentration of 20 uM. […] The plate was mixed and incubated for 90 minutes at room temperature. Anisotropy is measured at excitation wavelength 480 nm and emission wavelength 535 nm using an EnVision Multi-label plate reader (PerkinElmer, Wellesley, Mass., USA). Fluorescence anisotropy is plotted against compound concentration to generate an IC50 (inhibitor concentration at which 50% of bound peptide is displaced) by fitting the data to a 4-parameter logistic model using XLFit software (Guildford, Surrey, UK). IC50 is converted to a binding dissociation constant (Ki value) according to the formula of Wang Z. FEBS Lett (1996) 3, 245: Ki=[I]50/([L]50/Kd+[P]0/Kd+1) where [I]50 is the concentration of the free inhibitor at 50% inhibition, [L]50 is the concentration of the free labeled ligand at 50% inhibition, [P]0 is the concentration of the free protein at 0% inhibition, Kd represents the dissociation constant of the FITC peptide probe.
A general note: Polarisation of emitted light reports the rotation of a fluorescent probe.

Experiment [2] has as its target recombinant Mcl-1 (residues 172-327) (Homo sapiens (Human), UniProt Q07820). In words: Bak peptide binding assay, fluorescence polarization anisotropy competition (FITC-Bak), Mcl-1.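 Further: displacement of labeled Bak peptide read by fluorescence anisotropy, 10-point threefold dilutions from 20 µM top dose in 5% DMSO, 90 min incubation at room temperature.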 The following applies: FITC-Bak peptide 10 nM, Mcl-1 14 nM.
Description: Compound affinity was measured using a fluorescence polarization anisotropy competition assay. Anisotropy measurements were carried out in 384-well, black, flat-bottom plates (Greiner Bio-one, Monroe, N.C., USA). […] 10 nM FITC-Bak peptide and 14 nM recombinant Mcl-1 (residues 172-327) were added to assay buffer (3 mM dithiothreitol, 50 mM NaCl, 20 mM Tris, pH 7.5).
In experiment [3] the target is Bcl-2 (residues 1-207 A96T,G110R, Δ35-91, replaced with Bcl-xL35-50) (Homo sapiens (Human), UniProt P10415, DEL35-91/INS34DVEENRTEAPEGTESE). In words: Bak peptide binding assay, fluorescence polarization anisotropy competition (FITC-Bak), Bcl-2 selectivity. To be noted: Table 4; FITC-Bak peptide 10 nM, Bcl-2 40 nM. As for the experimental part:
as §1, §2, §3

The mark [4] stands for this setting: Table 3, binned ranges, read-out: Ki for inhibition of Mcl-1.

Like-named read-outs stand apart in the source and are kept apart here. Bounds are passed on as bounds.

Chain of recombinant Mcl-1 (residues 172-327) (Q07820 172-327): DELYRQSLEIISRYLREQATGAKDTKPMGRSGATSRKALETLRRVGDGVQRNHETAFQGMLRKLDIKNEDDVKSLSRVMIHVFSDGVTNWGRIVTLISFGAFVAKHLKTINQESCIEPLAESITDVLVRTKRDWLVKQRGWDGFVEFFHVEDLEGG
Chain of Bcl-xL (residues 1-209, loop 45-86 deleted) (Q07817 other isoform, or with tags, fused parts or gaps del 45-86): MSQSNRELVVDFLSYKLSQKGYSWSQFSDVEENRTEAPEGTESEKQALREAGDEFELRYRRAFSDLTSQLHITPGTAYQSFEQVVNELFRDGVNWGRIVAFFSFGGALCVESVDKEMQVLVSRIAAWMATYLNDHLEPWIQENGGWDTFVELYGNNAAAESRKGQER
Chain of Bcl-2 (residues 1-207 A96T,G110R, Δ35-91, replaced with Bcl-xL35-50) (P10415 other isoform, or with tags, fused parts or gaps, stated change not applied): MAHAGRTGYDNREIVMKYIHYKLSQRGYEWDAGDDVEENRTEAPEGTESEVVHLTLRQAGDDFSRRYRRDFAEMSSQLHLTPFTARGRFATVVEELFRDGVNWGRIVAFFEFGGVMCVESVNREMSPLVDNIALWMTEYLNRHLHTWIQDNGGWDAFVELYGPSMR

Consider `Cc1cc(OCCCc2cn(CCC(=O)NS(C)(=O)=O)c3cc(Cl)ccc23)cc(C)c1Cl` [Example 20, 3-(6-chloro-3-(3-(4-chloro-3,5-dimethylphenoxy)propyl)-1H-indol-1-yl)-N-(methylsulfonyl)propanamide], for which the Ki is 10000 nM in experiment [1]; 101 to 299 nM in experiment [2] (setting [4]); 360 nM in experiment [2] (Table 4, read-out: Ki Mcl-1). In the case of `Cc1cc(OCCCc2c(C)n(CCC(=O)O)c3cc(Cl)ccc23)cc(C)c1Cl` [Example 44, 3-(6-chloro-3-(3-(4-chloro-3,5-dimethylphenoxy)propyl)-2-methyl-1H-indol-1-yl)propanoic acid], the inhibition constant (Ki) in experiment [1] is 7900 nM; in experiment [2] (setting [4]), 101 to 299 nM; in experiment [2] (Table 4, read-out: Ki Mcl-1), 170 nM. Take `Cc1cc(OCCCc2c(C)n(Cc3ccc(C(=O)O)o3)c3c(-c4c(C)n[nH]c4C)cccc23)cc(C)c1Cl` [Example 99, 5-((3-(3-(4-chloro-3,5-dimethylphenoxy)propyl)-7-(3,5-dimethyl-1H-pyrazol-4-yl)-2-methyl-1H-indol-1-yl)methyl)furan-2-carboxylic acid]: the Ki was 9300 nM in experiment [1]; 2900 nM in experiment [3]; at most 100 nM in experiment [2] (setting [4]); 11 nM in experiment [2] (Table 4, read-out: Ki Mcl-1). In the same order, the values of `Cc1cc(OCCCc2c(C)n(Cc3cccc(C(=O)O)c3)c3c(-c4c(C)n[nH]c4C)cccc23)cc(C)c1Cl` [Example 100, 3-((3-(3-(4-chloro-3,5-dimethylphenoxy)propyl)-7-(3,5-dimethyl-1H-pyrazol-4-yl)-2-methyl-1H-indol-1-yl)methyl)benzoic acid] are 4700 nM, 1200 nM, at most 100 nM and 10 nM. Regarding `Cc1cc(OCCCc2c(C(F)(F)F)n(Cc3ccc(C(=O)O)cc3)c3c(-c4c(C)nn(C)c4C)cccc23)cc(C)c1Cl` [Example 124, 4-((3-(3-(4-chloro-3,5-dimethylphenoxy)propyl)-2-(trifluoromethyl)-7-(1,3,5-trimethyl-1H-pyrazol-4-yl)-1H-indol-1-yl)methyl)benzoic acid], the Ki in experiment [2] (setting [4]) was at most 100 nM. Same read-out and setting: in the case of `Cc1cc(OCCCc2c(C)n(Cc3cccc(C(=O)NS(C)(=O)=O)c3)c3c(-c4c(C)nn(C)c4C)cccc23)cc(C)c1Cl` [Example 125, 3-((3-(3-(4-chloro-3,5-dimethylphenoxy)propyl)-2-methyl-7-(1,3,5-trimethyl-1H-pyrazol-4-yl)-1H-indol-1-yl)methyl)-N-(methylsulfonyl)benzamide] it was at most 100 nM; in that of `Cc1cc(OCCCc2c(C)n(Cc3cccc(C(=O)NS(=O)(=O)c4ccccn4)c3)c3c(-c4c(C)nn(C)c4C)cccc23)cc(C)c1Cl` [Example 126, 3-((3-(3-(4-chloro-3,5-dimethylphenoxy)propyl)-2-methyl-7-(1,3,5-trimethyl-1H-pyrazol-4-yl)-1H-indol-1-yl)methyl)-N-(pyridin-2-ylsulfonyl)benzamide], at most 100 nM; in that of `Cc1cc(OCCCc2c(C)n(Cc3cccc(C(=O)NS(=O)(=O)c4ccccc4)c3)c3c(-c4c(C)nn(C)c4C)cccc23)cc(C)c1Cl` [Example 127, 3-((3-(3-(4-chloro-3,5-dimethylphenoxy)propyl)-2-methyl-7-(1,3,5-trimethyl-1H-pyrazol-4-yl)-1H-indol-1-yl)methyl)-N-(phenylsulfonyl)benzamide], at most 100 nM. On the same count and under the same terms, in the case of `Cc1cc(OCCCc2c(C)n(Cc3cccc(C(=O)NS(=O)(=O)c4ccncc4)c3)c3c(-c4c(C)nn(C)c4C)cccc23)cc(C)c1Cl` [Example 128, 3-((3-(3-(4-chloro-3,5-dimethylphenoxy)propyl)-2-methyl-7-(1,3,5-trimethyl-1H-pyrazol-4-yl)-1H-indol-1-yl)methyl)-N-(pyridin-4-ylsulfonyl)benzamide] it was 101 to 299 nM. Take `Cc1cc(OCCCc2c(C)n(Cc3cccc(C(=O)NS(=O)(=O)c4cccnc4)c3)c3c(-c4c(C)nn(C)c4C)cccc23)cc(C)c1Cl` [Example 129, 3-((3-(3-(4-chloro-3,5-dimethylphenoxy)propyl)-2-methyl-7-(1,3,5-trimethyl-1H-pyrazol-4-yl)-1H-indol-1-yl)methyl)-N-(pyridin-3-ylsulfonyl)benzamide]: the Ki in experiment [2] (setting [4]) was 101 to 299 nM. Same read-out and setting: in the case of `Cc1cc(OCCCc2c(C)n(Cc3ccc(C(=O)NS(=O)(=O)c4ccccc4)cc3)c3c(-c4c(C)nn(C)c4C)cccc23)cc(C)c1Cl` [Example 130, 4-((3-(3-(4-chloro-3,5-dimethylphenoxy)propyl)-2-methyl-7-(1,3,5-trimethyl-1H-pyrazol-4-yl)-1H-indol-1-yl)methyl)-N-(phenylsulfonyl)benzamide] it was at most 100 nM. On to `Cc1cc(OCCCc2c(C)n(Cc3ccc(C(=O)NS(C)(=O)=O)cc3)c3c(-c4c(C)nn(C)c4C)cccc23)cc(C)c1Cl` [Example 131, 4-((3-(3-(4-chloro-3,5-dimethylphenoxy)propyl)-2-methyl-7-(1,3,5-trimethyl-1H-pyrazol-4-yl)-1H-indol-1-yl)methyl)-N-(methylsulfonyl)benzamide], for which, in experiment [2] (setting [4]), the Ki was at most 100 nM.

As to `Cc1cc(OCCCc2c(C)n(Cc3ccc(C(=O)NS(=O)(=O)c4ccccn4)cc3)c3c(-c4c(C)nn(C)c4C)cccc23)cc(C)c1Cl` [Example 132, 4-((3-(3-(4-chloro-3,5-dimethylphenoxy)propyl)-2-methyl-7-(1,3,5-trimethyl-1H-pyrazol-4-yl)-1H-indol-1-yl)methyl)-N-(pyridin-2-ylsulfonyl)benzamide], the inhibitory constant (Ki) in experiment [2] (setting [4]) is at most 100 nM. With `Cc1cc(OCCCc2c(C)n(CCC(=O)O)c3c(-c4c(C)nn(Cc5cccnc5)c4C)cccc23)cc(C)c1Cl` [Example 133, 3-(3-(3-(4-chloro-3,5-dimethylphenoxy)propyl)-7-(3,5-dimethyl-1-(pyridin-3-ylmethyl)-1H-pyrazol-4-yl)-2-methyl-1H-indol-1-yl)propanoic acid], the Ki in experiment [2] (setting [4]) is at most 100 nM. As to `Cc1cc(OCCCc2c(C)n(Cc3ccc(C(=O)O)cn3)c3c(-c4c(C)nn(C)c4C)c(Cl)ccc23)cc(C)c1Cl` [Example 134, 6-((6-chloro-3-(3-(4-chloro-3,5-dimethylphenoxy)propyl)-2-methyl-7-(1,3,5-trimethyl-1H-pyrazol-4-yl)-1H-indol-1-yl)methyl)nicotinic acid], the Ki in experiment [2] (setting [4]) is at most 100 nM.

For `Cc1cc(OCCCc2c(C(F)(F)F)n(CCC(=O)O)c3ccccc23)cc(C)c1Cl` [Example 135, 3-(3-(3-(4-chloro-3,5-dimethylphenoxy)propyl)-2-(trifluoromethyl)-1H-indol-1-yl)propanoic acid], in experiment [2] (setting [4]), the Ki was at most 100 nM.

Usually Ki stands for a measure of affinity in units of concentration, obtained from inhibition or displacement.
